Data reported in patent publication US11826324B2, “Pharmaceutical compositions for preventing or treating inflammatory disease, autoimmune disease, or combination thereof, and method for using same” (INDUSTRY-ACADEMIC COOPERATION FOUNDATION, YONSEI UNIVERSITY, priority 2017, dated 2023).

Tests used:
[1] = tested on: CD8 T cell; assay: Effect on T cell activation in vitro: proliferation of CD8 T cell (CTV, flow cytometry); assay type: cell-based, C57BL/6 mice; details: T cells activated 3 days with anti-CD3/28 Dynabeads; HL-156A 5, 15, 45 or 135 μM and/or 20 nM rapamycin; FIG. 1B
Source text: (§1) The spleen was harvested from normal C57BL/6 mice (Orient Bio) and the mixture obtained by adding a RPMI solution containing 2% (v/v) fetal bovine serum (FBS) to the spleen tissues was homogenized by using a 40 μm strainer.
(§2) T cells were isolated from the homogenized spleen tissue by using CD90.2 magnetic beads (Miltenyi Biotec). Isolated T cells were labeled using CellTrace™ Violet (CTV). Subsequently, labeled T cells were activated for 3 days by using anti-CD3/28 Dynabeads®.
(§3) During T cells were activated, 5 μM, 15 μM, 45 μM, or 135 μM HL-156A (Hanoi BioPharma Inc.), and/or 20 nM rapamycin (LC Laboratories) were added to identify the effect of HL-156A, or the combination of HL-156A and rapamycin on the proliferation of T cells. […]
(§4) Activated T cells were immunostained by using allophycocyanin (APC)-labeled anti-CD4 antibody (BD Biosciences) and peridinin chlorophyll protein complex (PerCP)-labeled anti-CD8 antibody (eBioscience). Immunostained T cells were analyzed by flow cytometric analysis to identify the surface molecular phenotype thereof. From the results obtained by flow cytometric analysis, the proliferation ratio (%) of the T cell with respect to a material treated on the T cell was calculated, and the proliferation ratio (%) of CD4 T cell and the proliferation ratio (%) of CD8 T cell with respect to a compound are shown in FIGS. 1A and 1B, respectively.

[2] = tested on: TNF-α production in THP-1 cells; assay: Inhibition of tumor necrosis factor-alpha production in THP-1 cell line (ELISA); assay type: cell-based, human; details: for amount of TNF-α produced in THP-1 cells, Average: PMA 25 ng/ml 24 h, then LPS, 24 h, No Drug control 5250; for production of TNF-α in cells (THP-1), result in words: FIG. 2A and Table 1
Description: The human THP-1 cell line (ATCC) was prepared and cultured at a temperature of 37° C. and under 5% CO2.
Prepared THP-1 cells were inoculated onto a 96-well plate at the density of 1×10^5, and HL-156A, HL-156B, HL-156C, HL-156D, HL-156E, and HL-156F (all produced by Hanoi BioPharma Inc.) were added at the concentration of 1 μM or 10 μM to the cell culture solution. Thereafter, 25 ng/ml of phorbol 12-myristate 13-acetate (PMA, Sigma-Aldrich) was added to the cell culture solution, and cells were cultured for 24 hours, and then, lipopolysaccharide (LPS) was added thereto to induce an immune response of THP-1 cell. As a negative control, a group in which LPS was not added or a group in which
LPS was added but no drug was added, were used.
THP-1 cells were cultured for 24 hours, and then, the amount of tumor necrosis factor-alpha (TNF-α) in the culture solution by using TNF ELISA kit (Invitrogen) was measured.

[3] = tested on: TNF-α production in MH7A cells; assay: Inhibition of tumor necrosis factor-alpha production in synoviocyte MH7A (ELISA); assay type: cell-based, human; details: for amount of TNF-α in MH7A culture solution, Average: LPS, 24 h, control 1 (HL156A series), 3.53 (HL156B series); for production of TNF-α in the cells (MH7A), result in words: 0.1, 1, 10 μM, Table 2 and FIG. 2B
Description: Human synoviocyte cell line MH7A (provided by Prof. Kim Wan-wook of Catholic University) was prepared and cultured at a temperature of 37° C. and under 5% CO2.
The prepared MH7A cells were inoculated onto a 96-well plate at the density of 3×10^4 cells, and lipopolysaccharide (LPS) was added thereto to induce the immune response of MH7A cells. Then, HL-156A or HL-156B was added at a concentration of 0.1 μM, 1 μM, or 10 μM to the cell culture solution. As a negative control, a group in which LPS was used but no drug was used, was used.
After MH7A cells were cultured for 24 hours, the amount of TNF-α in the culture solution was measured by using a TNF-α ELISA kit (Peprotach).

[4] = tested on: virus-specific CD8+ T cell (GP33+CD8 T cell); set-up: species or system C57BL/6 mouse; details: mouse, in vivo
[5] = tested on: CD4 T cell; assay: Effect on T cell activation in vitro: proliferation of CD4 T cell (CTV, flow cytometry); assay type: cell-based, C57BL/6 mice; details: T cells activated 3 days with anti-CD3/28 Dynabeads; HL-156A 5, 15, 45 or 135 μM and/or 20 nM rapamycin; FIG. 1A
Source text: as §1, §2, §3, §4

[6] = tested on: collagen-induced arthritis mouse model; assay: Collagen-induced arthritis mouse model, arthritis score; assay type: in vivo, DBA/1 mouse; details: 60 mg/kg intraperitoneally once every two days; mice with average arthritis score of 8; FIG. 5
Description: Bovine Type II collagen was dissolved in complete freund's adjuvant (CFA) containing 250 μg per mouse of heat-sterilized Mycobacterium tuberculosis H37Ra (BD Sciences) to prepare a collagen solution.
DBA/1 mouse was immunized by intradermally injecting […] per mouse of the prepared collagen thereinto. On day 21 after the immunization, bovine Type II collagen dissolved in incomplete freund's adjuvant (IFA) was injected subcutaneously into the tail of a mouse in an amount of 100 μg to boost the immune system.
The arthritis score of mice was measured using the following criteria:
Grade 0: swelling or erythema;
Grade 1: mild swelling and erythema, inflammation of the toes;
Grade 2: moderate swelling and erythema confined to the distal to mid-limbs;
Grade 3: extended to the ankle, clear swelling and erythema; and
Grade 4: Severe swelling, erythema, and joint stiffness of ankle, foot, and toes.
A score of 0 to 4 was assigned to each leg, and a maximum of 16 points of arthritis scores were assigned to each mouse.
Mice with an average arthritis score of 8 were randomly selected. The HL-156A compound was diluted in PBS and administered to the selected mice intraperitoneally once every two days with 60 mg/kg body weight of HL-156A compound.

| Compound | proliferation of CD8 T cell [1] | amount of TNF-α produced in THP-1 cells, Average ([2]; 1 μM compound) [pg/mL] | amount of TNF-α produced in THP-1 cells, Average ([2]; 10 μM compound) [pg/mL] | production of TNF-α in cells (THP-1), result in words [2] | amount of TNF-α in MH7A culture solution, Average ([3]; 0.1 μM compound) | amount of TNF-α in MH7A culture solution, Average ([3]; 1 μM compound) | amount of TNF-α in MH7A culture solution, Average ([3]; 10 μM compound) | production of TNF-α in the cells (MH7A), result in words [3] | differentiation of TCM cells and TEM cells in PBMCs [4] | proliferation of TEFF cells in PBMCs [4] | proliferation of CD4 T cell [5] | arthritis score over time [6] |
| --- | --- | --- | --- | --- | --- | --- | --- | --- | --- | --- | --- | --- |
| N=C(NC(=N)N1CCCC1)Nc1ccc(OC(F)(F)F)cc1 [HL-156A, N1-pyrrolidine-N5-(4-trifluoromethoxy)phenyl biguanide] | significantly inhibited | 6750 | 3025 | inhibited the production of TNF-α | 0.82 | 0.75 | 0.72 | inhibited the production of TNF-α in a concentration-dependent manner | inhibited | promoted | significantly inhibited | decreased the arthritis score over time |
| N=C(NC(=N)N1CCCC1)Nc1ccc(C(F)(F)F)cc1 [HL-156B, N1-pyrrolidine-N5-(4-trifluoromethyl)phenyl biguanide] | – | 6125 | 2875 | inhibited the production of TNF-α | 3.11 | 2.56 | 2.17 | inhibited the production of TNF-α in a concentration-dependent manner | – | – | – | – |
| N=C(NC(=N)N1CCCCC1)Nc1ccc(F)cc1 [HL-156C, N1-piperidine-N5-(4-fluoro)phenyl biguanide] | – | 4825 | 6375 | – | – | – | – | – | – | – | – | – |
| N=C(NC(=N)N1CCCCC1)Nc1ccc(-c2nnn[nH]2)cc1 [HL-156D, N1-piperidine-N5-(4-(1H-tetrazole-5-yl))phenyl biguanide] | – | 6125 | 5150 | – | – | – | – | – | – | – | – | – |
| N=C(NC(=N)N1CCCC1)Nc1ccc(Cl)c(Cl)c1 [HL-156E, N1-pyrrolidine-N5-(3,4-dichloro)phenyl biguanide] | – | 4725 | 1925 | inhibited the production of TNF-α | – | – | – | – | – | – | – | – |
| COc1cc(NC(=N)NC(=N)N2CCCCC2)cc(OC)c1 [HL-156F, N1-piperidine-N5-(3,5-dimethoxy)phenyl biguanide] | – | 6425 | 4650 | inhibited the production of TNF-α | – | – | – | – | – | – | – | – |
